Assay results as given in ChEMBL document CHEMBL1201862, “PubChem BioAssay data set” (2004).
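Values below derive from 48-hour exposures of cells grown in 96-well plates, with endpoints linearly interpolated between the two concentrations bracketing the appropriate inhibition level. GI50 is the concentration that inhibits growth by half.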 Calls of active or inactive are those of the source. Cut-off read from the data, not from the text of the source: active = GI50 up to about 1.1 µM and inactive = higher.

Assays:
Assay in all cases: DTP human tumour cell line panel, 48 h
SF-539 = tested on: SF-539
OVCAR-4 = tested on: OVCAR-4
NCI-H460 = tested on: NCI-H460
SNB-19 = tested on: SNB-19
HCT-116 = tested on: HCT-116
ACHN = tested on: ACHN
786-0 = tested on: 786-0
MOLT-4 = tested on: MOLT-4
U-251 = tested on: U-251
COLO 205 = tested on: COLO 205
SK-MEL-2 = tested on: SK-MEL-2
RPMI-8226 = tested on: RPMI-8226
Malme-3M = tested on: Malme-3M
A498 = tested on: A498
SF-268 = tested on: SF-268
HCC 2998 = tested on: HCC 2998
OVCAR-8 = tested on: OVCAR-8
LOX IMVI = tested on: LOX IMVI
HOP-92 = tested on: HOP-92

Measured: GI50

CC(C)O/C=C1\C(=O)C2(SCCS2)[C@H]2CCCC[C@@H]12
inactive: SF-539 44.3 µM | OVCAR-4 48.9 µM | NCI-H460 33.7 µM | SNB-19 39.5 µM | HCT-116 34.4 µM | ACHN 39.3 µM | 786-0 48 µM | MOLT-4 16.2 µM | U-251 40.5 µM | COLO 205 18.5 µM | SK-MEL-2 34.8 µM | RPMI-8226 25.4 µM | Malme-3M 32.7 µM | A498 17.7 µM | SF-268 39 µM | HCC 2998 66.4 µM | OVCAR-8 36.6 µM

CN(C(=O)c1ccco1)C(=S)N1CCN(c2ccccc2)CC1
inactive: SF-539 > 100 µM | OVCAR-4 > 100 µM | NCI-H460 > 100 µM | LOX IMVI > 100 µM | SNB-19 > 100 µM | HCT-116 > 100 µM | ACHN > 100 µM | 786-0 > 100 µM | MOLT-4 > 100 µM | U-251 > 100 µM | COLO 205 > 100 µM | SK-MEL-2 > 100 µM | RPMI-8226 > 100 µM | Malme-3M > 100 µM | HOP-92 > 100 µM | SF-268 > 100 µM | OVCAR-8 > 100 µM

NC(CCCCNC(=O)CNC(=O)OCc1ccccc1)C(=O)NC(CCCCNC(=O)CNC(=O)OCc1ccccc1)C(=O)NC(CCCCNC(=O)CNC(=O)OCc1ccccc1)C(=O)NC(CCCCNC(=O)CNC(=O)OCc1ccccc1)C(=O)NC(CCCCNC(=O)CNC(=O)OCc1ccccc1)C(=O)NC(CCCCNC(=O)CNC(=O)OCc1ccccc1)C(=O)O (stereo unspecified)
inactive: OVCAR-4 > 75 µM | NCI-H460 > 75 µM | LOX IMVI > 75 µM | SNB-19 > 75 µM | HCT-116 > 75 µM | ACHN > 75 µM | 786-0 > 75 µM | MOLT-4 > 75 µM | U-251 > 75 µM | SK-MEL-2 > 75 µM | RPMI-8226 > 75 µM | Malme-3M > 75 µM | A498 > 75 µM | SF-268 > 75 µM | HCC 2998 > 75 µM | OVCAR-8 > 75 µM

c1ccc(SC(Sc2ccccc2)=C2CCC2)cc1
inactive: SF-539 > 100 µM | OVCAR-4 > 100 µM | NCI-H460 > 100 µM | LOX IMVI > 100 µM | SNB-19 > 100 µM | HCT-116 > 100 µM | ACHN > 100 µM | 786-0 > 100 µM | MOLT-4 > 100 µM | U-251 > 100 µM | COLO 205 > 100 µM | SK-MEL-2 > 100 µM | RPMI-8226 > 100 µM | A498 > 100 µM | HOP-92 55.3 µM | SF-268 > 100 µM | OVCAR-8 > 100 µM

COC(=O)C(=O)C(C(=O)C(=O)Nc1ccccc1[N+](=O)[O-])c1nc2ccc([N+](=O)[O-])cc2nc1O (stereo unspecified)
inactive: OVCAR-4 > 100 µM | NCI-H460 > 100 µM | LOX IMVI > 100 µM | SNB-19 > 100 µM | HCT-116 > 100 µM | ACHN > 100 µM | 786-0 > 100 µM | MOLT-4 > 100 µM | U-251 > 100 µM | COLO 205 > 100 µM | SK-MEL-2 > 100 µM | RPMI-8226 > 100 µM | Malme-3M > 100 µM | A498 > 100 µM | HOP-92 > 100 µM | SF-268 > 100 µM | OVCAR-8 > 100 µM

Cc1ccc(S(=O)(=O)N2CCN(S(=O)(=O)c3ccc(C)cc3)Cc3ccccc3C2)cc1
inactive: SF-539 > 100 µM | OVCAR-4 18.8 µM | NCI-H460 > 100 µM | LOX IMVI > 100 µM | SNB-19 21.6 µM | HCT-116 > 100 µM | ACHN 36.9 µM | 786-0 35.2 µM | MOLT-4 > 100 µM | COLO 205 > 100 µM | SK-MEL-2 > 100 µM | RPMI-8226 > 100 µM | Malme-3M > 100 µM | SF-268 81.1 µM | HCC 2998 > 100 µM | OVCAR-8 82.6 µM

CN(/N=C\c1ccnc2ccccc12)c1ccccc1
inactive: SF-539 25.7 µM | OVCAR-4 25.4 µM | NCI-H460 23.7 µM | LOX IMVI 17.2 µM | SNB-19 29.2 µM | HCT-116 17.6 µM | ACHN 31 µM | 786-0 18.5 µM | MOLT-4 > 100 µM | U-251 25.8 µM | COLO 205 20.3 µM | SK-MEL-2 19.5 µM | RPMI-8226 > 100 µM | Malme-3M 23.8 µM | A498 21 µM | HOP-92 25.4 µM | SF-268 56.1 µM | OVCAR-8 38.3 µM

CCC12C=CCN(CCc3c([nH]c4ccccc34)/C=C\1)C2 (stereo unspecified)
inactive: SF-539 > 100 µM | OVCAR-4 > 100 µM | NCI-H460 > 100 µM | LOX IMVI > 100 µM | SNB-19 > 100 µM | HCT-116 > 100 µM | ACHN > 100 µM | 786-0 > 100 µM | MOLT-4 > 100 µM | U-251 > 100 µM | COLO 205 > 100 µM | SK-MEL-2 > 100 µM | RPMI-8226 > 100 µM | Malme-3M > 100 µM | A498 > 100 µM | SF-268 > 100 µM | HCC 2998 > 100 µM

CSc1nnc(COc2ccc(Cl)cc2)o1
inactive: SF-539 > 100 µM | OVCAR-4 > 100 µM | NCI-H460 > 100 µM | LOX IMVI > 100 µM | SNB-19 > 100 µM | HCT-116 > 100 µM | ACHN > 100 µM | 786-0 > 100 µM | U-251 > 100 µM | COLO 205 > 100 µM | Malme-3M > 100 µM | A498 > 100 µM | SF-268 > 100 µM | OVCAR-8 > 100 µM

NC(=O)c1nc(-c2ccc(Cl)c(Cl)c2)nc2ccccc12
inactive: SF-539 13.4 µM | OVCAR-4 > 100 µM | NCI-H460 > 55.7 µM | LOX IMVI > 100 µM | SNB-19 17.8 µM | HCT-116 > 19.8 µM | ACHN > 20.8 µM | 786-0 3.69 µM | MOLT-4 > 100 µM | U-251 > 28 µM | COLO 205 > 100 µM | SK-MEL-2 9.42 µM | RPMI-8226 > 21.1 µM | Malme-3M 4.92 µM | A498 16.1 µM | HOP-92 1.56 µM | SF-268 19.1 µM

COc1ccc(NC(=O)CC(=O)N/N=C(\C)c2cc3ccccc3oc2=O)cc1
inactive: SF-539 > 100 µM | NCI-H460 > 100 µM | LOX IMVI > 100 µM | SNB-19 > 100 µM | HCT-116 > 100 µM | ACHN > 100 µM | 786-0 > 100 µM | MOLT-4 > 100 µM | U-251 > 100 µM | COLO 205 > 100 µM | RPMI-8226 > 100 µM | Malme-3M > 100 µM | OVCAR-8 > 100 µM

O=C(CN1C(=O)c2ccccc2C1=O)OC1C=CCCC1 (stereo unspecified)
inactive: SF-539 > 100 µM | OVCAR-4 > 100 µM | NCI-H460 > 100 µM | SNB-19 > 100 µM | HCT-116 > 100 µM | ACHN > 100 µM | 786-0 > 100 µM | MOLT-4 > 100 µM | U-251 > 100 µM | COLO 205 > 100 µM | SK-MEL-2 > 100 µM | RPMI-8226 > 100 µM | Malme-3M > 100 µM | A498 > 100 µM | SF-268 > 100 µM | HCC 2998 > 100 µM | OVCAR-8 > 100 µM
